# Earlier results as cited in patent US20190350879A1, “METHOD OF TREATING PAIN USING RACEMIC MIXTURE OF S-KETAMINE AND R-KETAMINE” (priority 2017, published 2019).
# Tests used:
# [1] = system: N-Methyl-D-Aspartate receptors; details: S(+)ketamine relative to R-isomer; target not named
# [2] = S(+)ketamine compared to R-isomer
smiles,measurement,setting,value
CN[C@]1(c2ccccc2Cl)CCCCC1=O [S(+)ketamine],"affinity, times greater",[1],approximately four
same,psychotomimetic side effects,[2],greater psychotomimetic side effects
